From the NIST ThermoML archive (doi:10.1007/s10765-007-0223-x)

Assay: xn = mol fraction of the nth substance listed
Settings: 101 kPa, Liquid; for speed of sound: Single path-length method

CCc1ccccc1 [ethylbenzene] + COC(C)(C)C
Settings | mass density, 295.65 K [kg/m3] | mass density, 298.15 K [kg/m3] | mass density, 300.65 K [kg/m3] | mass density, 303.15 K [kg/m3] | speed of sound, 298.15 K [m/s] | speed of sound, 300.65 K [m/s] | speed of sound, 303.15 K [m/s] | speed of sound, 305.65 K [m/s]
x2 = 0 | – | 862.459 | 860.256 | 858.047 | 1318.4 | 1307.9 | 1297.5 | 1287.1
x2 = 0.046 | – | 857.231 | 855.014 | 852.795 | 1306 | 1295.8 | 1285.5 | 1275.2
x2 = 0.106 | – | 850.237 | 848.001 | 845.762 | 1291.4 | 1280.9 | 1270.4 | 1260
x2 = 0.212 | – | 837.881 | 835.613 | 833.338 | 1264.1 | 1253.5 | 1242.9 | 1232.4
x2 = 0.299 | – | 827.364 | 825.064 | 822.758 | 1241.2 | 1230.5 | 1219.8 | 1209.2
x2 = 0.402 | – | 814.636 | 812.278 | 809.93 | 1212.7 | 1201.5 | 1190.7 | 1180
x2 = 0.503 | 805.684 | 803.312 | 800.937 | 798.555 | 1187.3 | 1176.4 | 1165.5 | 1154.7
x2 = 0.6 | 791.851 | 789.435 | 787.011 | 784.554 | 1156.8 | 1145.7 | 1134.2 | 1123.2
x2 = 0.701 | 778.587 | 776.124 | 773.654 | 771.175 | 1127 | 1115.9 | 1104.8 | 1093.7
x2 = 0.822 | 762.221 | 759.695 | 757.162 | 754.617 | 1090.5 | 1079.2 | 1068 | 1056.8
x2 = 0.899 | 751.405 | 748.835 | 746.257 | 743.666 | 1066.3 | 1054.9 | 1043.6 | 1032.3
x2 = 0.948 | 744.369 | 741.772 | 739.163 | 736.543 | 1050.8 | 1039.4 | 1028 | 1016.6
